pEC50: −log10 of the molar value.
What was measured:
[1] = tested on: zebrafish embryos; conditions: in vivo
Procedure: To assess the selectivity of compounds on mixed cultures consisting of GSC with other cell types, a hanging drop-based mixed culture procedure was developed. U3013MG GSCs were labeled with a cell tracker red and fibroblasts with a cell tracker green fluorescent dye for co-cultures to assess selective effects on glioma cells (glioblastoma) in a mixed culture setting. Cells organized in layers in the absence of compounds.
A zebrafish model was used to assess the developmental and cardiac toxicity of advanced hits from the screen. For the developmental toxicity experiment, zebrafish embryos at one-cell stage were distributed into a 96 well plate (3 embryos per well in 200 μl of egg water) and exposed to DMSO as a control or various concentration of compounds. The egg water (with or without compound) was replaced every 6 hrs and the embryos were allowed to grow for three days. The embryos were monitored every day and allowed to grow for 5 days before the phenotype was recorded. For the cardiotoxicity assay, an ex vivo culture of adult hearts was performed according to our previously published procedure (Kitambi et al., (2012) BMC Physiol. 12, 3). Adult hearts from male zebrafish were exposed to compounds and the effect on the heart beat was recorded and analysed using developed methods (Kitambi et al., (2012) BMC Physiol. 12, 3).

[2] = tested on: glioma stem cell line U3013; assay: In vitro cancer cell and CSC viability assay (ATP quantification, CellTiterGlo); assay type: cell-based, human; conditions: Homo sapiens; U3013, 24 hours exposure; read-out: In vitro efficacy (viability) EC50
Procedure: The ability of Examples S1-S23 to selectively induce cytotoxicity in glioma/glioblastoma cancer cells or glioma/glioblastoma cancer stem cells was determined by quantification of ATP production in glioma stem cell line U3013 in the presence of using CellTiterGlo reagent (Promega). Cells were exposed to compound in serial dilution in the range 1 nM to 50 µM for 24 hours and viability assessed with respect to negative control (dmso, no cell death) and positive control (staurosporine, full cell death). […] The EC50 of S10 remained largely similar at 2, 3 and 4 days of incubation. […] The individual isomers (S21-S23) of racemic S10 were evaluated in order to determine the enantiospecific pharmacology of the individual isomers.
Negative (100% DMSO) and positive (10 mM S10 in 100% DMSO) controls were placed in rows 1-4 and 5-8, respectively, of column 12. The wells were diluted with 190 μl of the corresponding growth media and 5 μl of each well of compound solution transferred to quadruplicate wells of a sterile 384-well black clear bottom plate (BD Falcon) containing GSC at 70% confluency in 45 μl growth media. The plate was incubated for 24 hours, after which the plate was removed from the incubator and each well imaged in bright-field using an Operetta Imaging system (PerkinElmer) at 37° C. and 5% CO2 to determine vacuole accumulation at each concentration. The plate was then allowed to cool to room temperature and each well treated with 25 μl freshly CellTiterGlo (Promega) reagent. The plate was shaken for 15 minutes and luminescence measured using a Victor3 (Perkin Elmer) microtiterplate reader. Total luminescence was normalized relative to control and curve fitting performed using GraphPad Prism (v6.02) software.

[3] = tested on: U3013MG GSC xenograft; assay: Mouse Kaplan-Meier experiment, oral S10 at terminal stage of GBM; assay type: in vivo, NOD-SCID mice; conditions: 20 mg/kg per orally for five days
Procedure: The bioavailability of S10 by oral and intraperitoneal injection in vivo was investigated. […] In a second delivery regimen, treatment was performed per orally (20 mg/kg) twice daily for five days. Treatment started at a terminal stage of GBM, i.e. six weeks after engraftment of U3013M GSCs and median survival from the time of treatment initiation and the Hazard ratio were scored.
For Kaplan-Meier experiments, 100,000 GSC from U3013MG we injected into NOD-SCID mice as described above. Mice were then monitored for 6 weeks and then oral administration regiment was started. Mice were either given 200 μl of water or S10 in water corresponding to 20 mg/kg, via oral gavage. A total of nine animals were taken for each treatment (control, S10). The oral administration was followed once a day for five days following which the administration was stopped and the animals monitored till they reach the humane end point, after which they were sacrificed.

[4] = tested on: U3013M GSCs intracranial tumor; assay: Mouse xenograft experiment, intracranial infusion by osmotic minipump; assay type: in vivo, Nod/SCID mice; conditions: 15 μM, 0.5 μL/hr, one week, started 6 weeks after grafting, vs vehicle
Procedure: The ability of S10 to attenuate tumor progression was next examined in a mouse model for human GBM. Nod/SCID mice received intracranial injections of 100 000 U3013M GSCs and the resulting tumor was allowed to develop for 7 weeks. […] Tumors were highly immunoreactive for human Nestin (hNestin) and human GFAP (hGFAP). S10 (15 μM, 0.5 μL/hr) or vehicle (DMSO) was administered into the site of original cell deposit by an osmotic minipump 6 weeks after cells were grafted. Animals were collected for histological analysis following one week of treatment. […] A massive LAMP1 staining was observed within the tumor cell mass following one week S10 administration, with most or all cells displaying immunoreactivity while mice receiving vehicle were devoid of LAMP1.
GSCs were dissociated with trypsin, resuspended in PBS and kept on ice and the viability of cells were checked using trypan blue before and after the experiment. Surgery in mice was performed using sterile techniques, 6 to 8 week old NOD-SCID mice were anaesthetized using a mixture of isoflurane and oxygen. […] The mice were monitored for weight loss and signs of distress. […]

OC(c1cc(-c2ccc(Cl)cc2)nc2ccccc12)C1CCCCN1 (racemic) [Compound S10, (2-(4-chlorophenyl)quinolin-4-yl)(piperidin-2-yl)methanol]
effect on zebrafish development [1]: did not exert any effect of zebrafish development
pEC50 [2]: 5.63
Hazard ratio (rate of death untreated vs S10 treated group) ([3]; comparison of the two survival curves): 2.293
median survival from the time of treatment initiation ([3]; start six weeks after engraftment, n=9, DMSO treated animals 7 days): 12 days
loss of brain tissue by necrosis [4]: markedly and significantly reduced
tumor infiltration and area of hGFAP and hNestin immunoreactivity [4]: significantly reduced
